Patent EP0976707A1, “CYCLOALKYL BENZYL ETHER COMPOUNDS” (Nissan Chemical Industries, Ltd., priority 1997, dated 1998)
Read-outs that look alike come from different tables or passages of the source.

Assays:
Assay in all cases: Herbicidal effect test under submerged conditions, inhibition ratio (Test Example 6)
Type in all cases: in vivo
[1] = system: Scirpus juncoides; conditions: Schoenoplectiella juncoides, 504 h, read-out: inhibition ratio (%), B (Scirpus juncoides); for pest or weed control at 2 g/ha: dosage 2 g/ha
Text: (§1) [Test Example 6] Herbicidal effect test under submerged conditions
(§2) In a 1/5,000-are Wagner pot was filled alluvial soil, which was mixed with water introduced therein to establish submerged conditions at a water depth of 4 cm. After seeds of Monochoria vaginalis and Scirpus juncoides were sowed mixedly in the pot, 2.5 leaf stage rice seedlings were transplanted at a depth of 2 cm. On the next day of transplantation of the rice, the compound of the present invention prepared according to one of Composition Examples was applied. Three weeks after the treatment, the live weights of aerial parts of each kind of the weeds and rice were measured and inhibition ratios (%) were obtained according to Test Example 4. In the tables, (E) indicates expected values obtained by the equation of Colby and (F) indicates found values. Left side values and right side values in the column of application rate for each active ingredient indicate corresponding dosages of compounds in the column of compound name.
(§3) Synergistic herbicidal effect of herbicide mixtures will be explained as follows. That is, individual active compounds in many cases may be deficient in their herbicidal activity. In such a case, if the herbicidal activity of two active compounds in combination is higher than the simple sum of the activities of the compounds (expected activity), then this is called synergistic action. The expected activity from the stable combination of two herbicides, can be calculated as follows. (cf. Colby, S. R., Calculation of Synergistic and Antagonistic Reactions of Combination of Herbicides, Weed, vol. 15, pages 20-22 (1967)) E = α + β - ( α · β / 100) [formula] α : Inhibition ratio when herbicide A is applied in a rate of a kg/ha β : Inhibition ratio when herbicide B is applied in a rate of b kg/ha E : Inhibition ratio expected when herbicide A is applied in a rate of a kg/ha and herbicide B is applied in a rate of b kg/ha.

[2] = system: Monochoria vaginalis; conditions: Pontederia vaginalis, 504 h, read-out: inhibition ratio (%), C (Monochoria vaginalis); for pest or weed control at 2 g/ha: dosage 2 g/ha
Text: as §1, §2, §3

[3] = system: transplanted rice; conditions: dosage 4 g/ha; live weight of aerial part, three weeks after the treatment
Text: Herbicidal effect test under submerged conditions
In a 1/5,000-are Wagner pot was filled alluvial soil, which was mixed with water introduced therein to establish submerged conditions at a water depth of 4 cm. After seeds of Monochoria vaginalis and Scirpus juncoides were sowed mixedly in the pot, 2.5 leaf stage rice seedlings were transplanted at a depth of 2 cm. On the next day of transplantation of the rice, the compound of the present invention prepared according to one of Composition Examples was applied. […] In the tables, (E) indicates expected values obtained by the equation of Colby and (F) indicates found values.
The expected activity from the stable combination of two herbicides, can be calculated as follows.

[4] = live weight of aerial part, three weeks after the treatment
[5] = dosage 4 g/ha, live weight of aerial part, three weeks after the treatment

Row | Structure (SMILES) | pest or weed control at 2 g/ha [1, 4] [%] | pest or weed control at 2 g/ha [2, 4] [%] | pest or weed control at 4 g/ha [1, 5] [%] | pest or weed control at 4 g/ha [2, 5] [%] | inhibition ratio (%), a (transplanted rice) [3] [%] | other results
1 | COc1cc(OC)nc(NC(=O)NS(=O)(=O)c2c(-c3nnn(C)n3)cnn2C)n1 [R-5, azimsulfuron] | 61 | 75 | – | – | – | –
2 | COc1cc(OC)nc(NC(=O)NS(=O)(=O)Nc2ccccc2C(=O)C2CC2)n1 [R-6, cyclosulfamuron] | – | – | 78 | 77 | 0 | –
3 | CCOc1ccccc1OS(=O)(=O)NC(=O)Nc1nc(OC)cc(OC)n1 [R-7, ethoxysulfuron] | 72 | 63 | – | – | – | –
4 | COCCOc1ccccc1S(=O)(=O)NC(=O)N=c1nc(OC)[nH]c(OC)n1 [R-8, cinosulfuron] | – | – | – | – | 0 | pest or weed control at 4 g/ha [1]: 70%; pest or weed control at 4 g/ha [2]: 69%
5 | COC(=O)c1ccccc1CS(=O)(=O)NC(=O)Nc1nc(OC)cc(OC)n1 [R-9, bensulfuron methyl] | – | – | 68 | 69 | – | –
